Experimental data published in paper PMC8779255, “Determining the Anticancer Activity of Sphingosine Kinase Inhibitors Containing Heteroatoms in Their Tail Structure” (Pharmaceutics, 2022).
Where two headings read alike, the source gives them in different places.

Assays:
HCT116 cells [1] = assay: MTT cell viability assay; format: cell-based, human; details: for IC50: Homo sapiens, HCT-116, read-out: relative IC50 (cell viability)
Experimental: (§1) The HT29 and HCT116 cells (human colon cancer), AGS (human gastric cancer), and MIA PaCa-2 cells (human pancreatic cancer) were purchased from Korean Cell Line Bank (Seoul, Korea). Cancer cells were maintained in RPMI (HT29 and AGS) and DMEM (HCT116 and MIA PaCa-2) culture media supplemented with 10% fetal bovine serum (FBS) and 100 U/mL penicillin and streptomycin at 37 °C in a 95% humidified incubator containing 5% CO2. The cytotoxic effect of the compounds was assessed using the MTT cell viability assay. Briefly, 3 × 10^3 cells/well were grown in 96-well plates for 24 h. After treatment with desired concentration of respective compounds for 24 h or 48 h, the EZ-CYTOTOX (10 µM) reagent was added in each well and incubated for 90 min. The absorbance was measured at 450 nm wavelength using Skanlt software 5.0 (Thermo Scientific, Waltham, MA, USA) installed on a Multiskan GO (Thermo Scientific, Waltham, MA, USA) spectrophotometer. Each experiment was independently repeated three times (n = 12).

HT29 cells [2] = assay: MTT cell viability assay; format: cell-based, human; details: for IC50: Homo sapiens, HT-29, read-out: relative IC50 (cell viability)
Experimental: as §1

CYP3A4 = target: T1, CYP3A4 (Homo sapiens, UniProt P08684); assay: Inhibition of CYP enzymes activity, human liver microsomes; format: in vitro ADME; details: human liver microsomes 0.25 mg/mL, 10 μM, midazolam substrate
T1 construct: Human liver microsomes (0.25 mg/mL); from tissue; host or cells: human liver microsomes
Experimental: By simultaneously analyzing metabolites, the ability of the six compounds to inhibit drug metabolism enzymes was evaluated.
(§4) Metabolites of each CYP coenzyme indicator drug generated through the above reaction were analyzed using the Shimadzu Nexera XR system and TSQ vantage (Thermo). The HPLC column was a Kinetex C18 column (2.1 × 100 mm^2, 2.6 μm particle size; Phenomenex, Torrance, CA, USA), and the mobile phase was distilled water (A) containing 0.1% formic acid and acetonitrile (B) containing 0.1% formic acid. […] The generated metabolites were quantified using MRM (Multiple Reaction Monitoring) quantification modes, and data were analyzed using Xcalibur (version 1.6.1).

[3] = tested on: sphingosine in HCT116 cells; assay: Sphingosine ELISA of cell lysate; format: cell-based, human; details: 24 h, vs nontreated control
Experimental: (§2) The cellular levels of S1P, sphingosine, and ceramide were detected using an ELISA assay kit (MyBioSource, Inc., San Diego, CA, USA) according to the manufacturer’s instruction. For S1P ELISA, 100 µL cell lysates or standards were added in pre-coated ELISA wells, incubated for 90 min at 37 °C, and treated with 1x biotinylated anti S1P antibody for 1 h. Following treatment of HRP conjugated secondary antibody, the substrate was added and allowed to change the color for 15 min; then, the stop solution was added and absorbance was measured at 450 nm using a Multiskan GO (Thermo Scientific, Waltham, MA, USA) microplate spectrophotometer. […] A stop solution (50 µL) was added to each well, and optical density was measured at 450 nm using a microplate reader. […] After incubation, 50 µL substrate A and B was added to the plate and incubated at 37 °C for 20 min; a stop solution (50 µL) was added to each well and optical density was determined at 450 nm using a microplate reader. The concentration of S1P, sphingosine, and ceramide were calculated as ng/mL using respective standard curves constructed by Skanlt microplate reader software 5.0 (Thermo Scientific, Waltham, MA, USA).

HCT116 cells [4] = assay: Annexin V-FITC/PI staining, flow cytometry; format: cell-based, human; details: HCT116, 10 and/or 20 µM, 24 h
Experimental: (§3) After treating HT29 and HCT116 cells with compounds 10, 11, 13 and FTY720 according to the manufacturer’s instruction, the annexin V and PI staining technique was employed to determine apoptosis in the cells. Briefly, cells (2.5 × 10^5 cells/well) were seeded in 12-well plates and treated with 10 and/or 20 µM of compounds for 24 h. Cells were collected using trypsin-EDTA and stained with annexin V-FITC dye for 15 min at room temperature, followed by PI staining for 20 min and analyzed by flow cytometer (MACSQuant Analyzer 10; Miltenyi Biotec, Bergisch Gladbach, Germany). The data was analyzed using MACSQuantify^TM version 2.8 software (Miltenyi Biotec, Bergisch Gladbach, Germany) and presented as early apoptosis, late apoptosis, or combined apoptosis percentage. Each experiment was repeated three times independently (n = 6).

HT29 cells [5] = assay: Annexin V-FITC/PI staining, flow cytometry; format: cell-based, human; details: HT29, 10 and/or 20 µM, 24 h
Experimental: as §3

[6] = In vitro metabolic stability in liver microsomes; format: in vitro ADME, rat
ceramide in HCT116 cells = assay: Ceramide ELISA of cell lysate; format: cell-based, human; details: HCT116, 20 µM, 24 h
Experimental: as §2

SK1 in HCT116 cells = assay: Western blotting of SK1 protein expression; format: cell-based, human; details: HCT116, 10 and 20 µM, 24 h, vs control cells
Experimental: The cell lysate was prepared after successive treatment using mammalian protein extraction buffer (Organic buffer + 10 mM NaCl + detergent pH 7.5) mixed with 1% protease/phosphatase inhibitor cocktail; protein was quantified with BCA assay, boiled at 95 °C for 10 min by adding sample loading buffer, separated using SDS-PAGE, and transferred into methanol-activated PVDF membrane. Primary antibodies were probed overnight in PVDF membrane at 4 °C and […] with subsequent HRP anti-mouse and anti-rabbit secondary antibodies at room temperature. Then, membranes were washed with TBST buffer, and images were detected by Amersham Imager 680 (GE Healthcare; Leiden, WZ, The Netherlands) using ECL solution. Band intensities were analyzed and quantified using Image J software (version 1.53i).

[7] = In vitro metabolic stability in liver microsomes; format: in vitro ADME, mouse
CYP2D6 = CYP2D6 (Homo sapiens, UniProt P10635); assay: Inhibition of CYP enzymes activity, human liver microsomes; details: human liver microsomes 0.25 mg/mL, 10 μM, dextromethorphan substrate
Experimental: Afterward, to terminate the reaction, an acetonitrile solution containing an internal standard (terfenadine) was added, centrifuged for 5 min (14,000 rpm, 4 °C), and the supernatant was injected into the LC-MS/MS system. By simultaneously analyzing metabolites, the ability of the six compounds to inhibit drug metabolism enzymes was evaluated.
as §4

[8] = In vitro metabolic stability in liver microsomes
Experimental: Microsome incubation was measured in triplicate in a 1.5 mL Eppendorf tube with 0.1 M potassium phosphate buffer (pH 7.4). […] It has a final volume of 100 mL in the presence of an NADPH regeneration system. In the final incubation mixture, 0.5 mg/mL HLM, 0.1 M potassium phosphate buffer (pH 7.4), and NADPH regeneration system (1 mM NADPH, 10 mM MgCl2) were included. In the pre-incubation mixture, HLM was added, and the mixture was run in a shaking incubator at approximately 350 rpm and 37 °C for 5 min under a Thermomixer (Eppendorf, Hamburg, Germany). Reactions were initiated by the addition of 1 mM NADPH and then quenched by the addition of 40 μL of ice-cold acetonitrile containing 10 μM chlorpropamide (CPP) as an internal standard at 0 and 30 min. After quenching, centrifugation of the incubation mixture was performed at 15,000× g for 5 min at 4 °C. An aliquot of 2 µL of the supernatant was injected into the LC-MS/MS system. The LC-MS/MS system was Xcalibur version 1.1.1 (Thermo Fisher Scientific Inc., Waltham, MA, USA).

[9] = % remaining after 30 min, NADPH

CYP2D6, sequence (P10635 whole entry): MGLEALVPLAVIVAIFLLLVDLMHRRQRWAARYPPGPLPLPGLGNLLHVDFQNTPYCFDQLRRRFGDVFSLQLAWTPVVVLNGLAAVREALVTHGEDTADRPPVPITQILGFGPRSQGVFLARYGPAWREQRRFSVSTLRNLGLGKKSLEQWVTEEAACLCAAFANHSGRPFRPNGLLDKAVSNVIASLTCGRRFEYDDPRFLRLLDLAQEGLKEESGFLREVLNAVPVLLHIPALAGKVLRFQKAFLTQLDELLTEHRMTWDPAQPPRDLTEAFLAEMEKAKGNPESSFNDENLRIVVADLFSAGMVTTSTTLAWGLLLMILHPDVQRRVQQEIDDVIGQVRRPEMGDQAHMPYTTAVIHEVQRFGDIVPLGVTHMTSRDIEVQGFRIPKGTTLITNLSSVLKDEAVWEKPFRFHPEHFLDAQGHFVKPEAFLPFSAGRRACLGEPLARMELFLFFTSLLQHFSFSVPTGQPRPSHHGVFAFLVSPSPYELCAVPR
T1 sequence (P08684 whole entry): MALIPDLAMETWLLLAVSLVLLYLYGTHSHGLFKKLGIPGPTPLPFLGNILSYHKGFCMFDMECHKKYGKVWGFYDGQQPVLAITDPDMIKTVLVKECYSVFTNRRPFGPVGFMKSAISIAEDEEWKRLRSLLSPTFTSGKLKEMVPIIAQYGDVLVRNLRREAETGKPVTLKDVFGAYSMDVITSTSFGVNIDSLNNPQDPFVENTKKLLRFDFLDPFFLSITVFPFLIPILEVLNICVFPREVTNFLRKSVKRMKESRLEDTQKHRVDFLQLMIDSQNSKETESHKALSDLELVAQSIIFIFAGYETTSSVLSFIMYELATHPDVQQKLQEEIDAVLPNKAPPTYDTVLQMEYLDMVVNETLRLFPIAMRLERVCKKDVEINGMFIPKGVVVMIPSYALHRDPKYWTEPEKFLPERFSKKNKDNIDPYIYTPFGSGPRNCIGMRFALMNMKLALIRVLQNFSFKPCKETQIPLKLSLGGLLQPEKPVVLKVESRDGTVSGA

IC50 (HCT116 cells [1]; HCT116, 24 h treatment): 10.9 µM
IC50 (HCT116 cells [1]; HCT116, 48 h treatment, 2.5–40 µM): 8.69 µM
IC50 (HT29 cells [2]; HT29, 24 h treatment): 10.5 µM
IC50 (HT29 cells [2]; HT29, 48 h treatment, 2.5–40 µM): 6.22 µM
CYP3A4 activity (% of control activity) (CYP3A4): >100%
liver microsomal stability, Rat (%) [6, 9]: 10.2%
liver microsomal stability (in words) ([6]; rat): unstable
liver microsomal stability, Mouse (%) [7, 9]: 44.7%
liver microsomal stability (in words) ([7]; mouse): unstable
CYP2D6 activity (% of control activity) (CYP2D6): 87.4%
liver microsomal stability, Human (%) ([8]; % remaining after 30 min, 0.5 mg/mL microsomes, NADPH): 70.3%
liver microsomal stability (in words) ([8]; human): stable
Compound: CCCCCCCOc1ccc(CCN2CCN(CCO)CC2)cc1 [Compound 10, 2-(4-(4-(Heptyloxy)phenethyl)piperazin-1-yl)ethanol]
cytotoxic effect, comparison (HCT116 cells [1]; HCT116, 10, 20 and 40 µM, Supplementary Figure S1C): higher than compounds 11, 13, and PF-543
cytotoxic effect (cell viability) (HCT116 cells [1]; HCT116, 20 and 40 µM, 24 h, Figure 2B): significant cytotoxic effects in both 20 and 40 µM concentrations
cytotoxic effect (cell viability) (HT29 cells [2]; HT29, 20 and 40 µM, 24 h, Figure 2A): more cytotoxic than RB005 and 5-FU
sphingosine level increase ([3]; HCT116, 10 µM): 1.42 fold
sphingosine level increase ([3]; HCT116, 20 µM): 1.74 fold
apoptosis (annexin V assay) (HCT116 cells [4]): induced apoptosis
apoptosis (annexin V assay) (HT29 cells [5]): induced apoptosis
ceramide level (ceramide in HCT116 cells): increased
SK1 protein expression level (SK1 in HCT116 cells): does not affect
